Read-outs that look alike come from different tables or passages of the source.
Tests used:
mice = format: in vivo; conditions: Acetyl L-carnitine 100 mg/kg BID SC 7 days
Method: The analgesia induced by the acetyl L-carnitine (100 mg/kg BID, SC for 7 days) was determined in presence of some antagonists of some neurotransmission systems deeply involved in the regulation of pain threshold, and in particular the naloxone (opioid antagonist), the CGP-35348 (GABAB antagonist) and the alpha-methyl-p-tyrosine (inhibitor of the synthesis of cathecolamines).
In agreement with the standard procedures known by the person skilled in the art, the doses used for any antagonist were the minimum required to prevent the analgesia induced by morphine (7 mg/kg SC) (1, 100 e 200 mg/kg IP), baclofen (4 mg/kg SC) and amphetamine (1 mg/kg SC) (non-reported data) respectively.

[1] = system: M1 muscarinic receptor sub-type; assay: Hot plate: acetyl L-carnitine analgesia after anti-M1 antisense oligonucleotide ICV; format: in vivo, mice; conditions: Acetyl L-carnitine 100 mg/kg BID SC 7 days
Text: The observation that the analgesia induced by the acetyl L-carnitine is mediated by the M1 muscarinic receptor sub-type is confirmed by the application of the anti-sense strategy.

Male Swiss Webster mice [2] = assay: Rota-rod test (motor coordination); format: in vivo
Method: The rota rod test was carried out by means of an apparatus consisting of a platform and a 3 cm-diameter rotating rod (16-20 r.p.m.) with a non-slipping surface.
The integrity of the animals' motor coordination was determined according to the capacity of the mice to keep their balance on the rotating rod.
At various intervals after the treatment, the parameter considered was the number of falls of the animal within a 30 second-observation (Vaught et al., Neuropharmacol., 24: 211, 1985).

Male Swiss Webster mice [3] = assay: Hole board test (spontaneous motility, exploratory activity); format: in vivo; conditions: 14-day sub-chronic treatment SC 100 mg/kg BID; 5 minutes on board
Method: In the hole board test, the […] movements were recorded by two separate photocell systems, which recorded both the movements on the board (spontaneous motility) and how many times the mouse put its head into the holes on the surface (exploratory activity).
The mice were placed on the board one at a time and left free to explore both the surface and the holes for 5 minutes.

Male Swiss Webster mice [4] = assay: Hyperalgesia induced by morphine withdrawal syndrome (hot plate)

With `CC(=O)O[C@H](CC(=O)[O-])C[N+](C)(C)C` [Acetyl L-carnitine, acetyl L-carnitine] the “Hot plate Licking latency” value (mice; pre-treat. Atropine 5 mg/kg, after treatment 45 min) was 12.8 ± 1.3° sec, the “Hot plate Licking latency” value (mice; pre-treat. Atropine 5 mg/kg, before treatment) was 21.2 ± 1.0^ sec and the “Hot plate Licking latency” value (mice; pre-treat. CGP 35348 100 mg/kg, after treatment 15 min) was 21.1 ± 1.2^ sec. The “Hot plate Licking latency” value (mice; pre-treat. CGP 35348 100 mg/kg, after treatment 30 min) was 21.0 ± 2.1^ sec, the “Hot plate Licking latency” value (mice; pre-treat. CGP 35348 100 mg/kg, after treatment 45 min) was 20.3 ± 1.9^ sec and the “Hot plate Licking latency” value (mice; pre-treat. CGP 35348 100 mg/kg, before treatment) was 22.1 ± 0.7 s. For the same compound, the “Hot plate Licking latency” value (mice; pre-treat. HC-3 1 μg ICV, after treatment 15 min) was 14.6 ± 1.3° sec, the “Hot plate Licking latency” value (mice; pre-treat. HC-3 1 μg ICV, after treatment 30 min) was 14.0 ± 1.8° sec and the “Hot plate Licking latency” value (mice; pre-treat. HC-3 1 μg ICV, after treatment 45 min) was 15.5 ± 1.9° sec. For the same compound, the “Hot plate Licking latency” value (mice; pre-treat. HC-3 1 μg ICV, before treatment) was 22.0 ± 1.1^ sec, the “Hot plate Licking latency” value (mice; pre-treat. Naloxone 1 mg/kg, after treatment 15 min) was 22.3 ± 1.9 s and the “Hot plate Licking latency” value (mice; pre-treat. Naloxone 1 mg/kg, after treatment 30 min) was 22.1 ± 2.0 s. For the same compound, the “Hot plate Licking latency” value (mice; pre-treat. Naloxone 1 mg/kg, after treatment 45 min) was 20.6 ± 1.2^ sec, the “Hot plate Licking latency” value (mice; pre-treat. Naloxone 1 mg/kg, before treatment) was 22.6 ± 0.6 s and the “Hot plate Licking latency” value (mice; pre-treat. Pirenzepine 0.1 μg ICV, after treatment 15 min) was 16.5 ± 1.8° sec. For the same compound, the “Hot plate Licking latency” value (mice; pre-treat. Pirenzepine 0.1 μg ICV, after treatment 30 min) was 14.3 ± 2.0° sec, the “Hot plate Licking latency” value (mice; pre-treat. Pirenzepine 0.1 μg ICV, after treatment 45 min) was 17.1 ± 1.6° sec and the “Hot plate Licking latency” value (mice; pre-treat. Pirenzepine 0.1 μg ICV, before treatment) was 21.6 ± 1.3^ sec. The “Hot plate Licking latency” value (mice; pre-treat. S-(−)-ET-126 0.1 μg ICV, after treatment 15 min) was 15.8 ± 2.2° sec, the “Hot plate Licking latency” value (mice; pre-treat. S-(−)-ET-126 0.1 μg ICV, after treatment 30 min) was 16.9 ± 2.3° sec and the “Hot plate Licking latency” value (mice; pre-treat. S-(−)-ET-126 0.1 μg ICV, after treatment 45 min) was 15.8 ± 1.8° sec. The “Hot plate Licking latency” value (mice; pre-treat. S-(−)-ET-126 0.1 μg ICV, before treatment) was 22.9 ± 1.3^ sec, the “Hot plate Licking latency” value (mice; pre-treat. physiological solution 10 ml/kg, after treatment 15 min) was 22.6 ± 1.3 s and the “Hot plate Licking latency” value (mice; pre-treat. physiological solution 10 ml/kg, after treatment 30 min) was 22.5 ± 1.3 s. The “Hot plate Licking latency” value (mice; pre-treat. physiological solution 10 ml/kg, after treatment 45 min) was 22.9 ± 1.6^ sec, the “Hot plate Licking latency” value (mice; pre-treat. physiological solution 10 ml/kg, before treatment) was 21.8 ± 1.1 s and the “Hot plate Licking latency” value ([1]; pre-treat. AODN 3 nmol ICV, 24 hours after last injection, before treatment) was 13.5 ± 0.8 s. For the same compound, the “Hot plate Licking latency” value ([1]; pre-treat. AODN 3 nmol ICV, after treatment 15 min) was 16.6 ± 1.9 s, the “Hot plate Licking latency” value ([1]; pre-treat. AODN 3 nmol ICV, after treatment 30 min) was 15.8 ± 1.8 s and the “Hot plate Licking latency” value ([1]; pre-treat. AODN 3 nmol ICV, after treatment 45 min) was 15.8 ± 1.5 s. For the same compound, the “Hot plate Licking latency” value ([1]; pre-treat. dODN 3 nmol ICV, 24 hours after last injection, before treatment) was 23.6 ± 1.1 s, the “Hot plate Licking latency” value ([1]; pre-treat. dODN 3 nmol ICV, after treatment 15 min) was 22.6 ± 2.3 s and the “Hot plate Licking latency” value ([1]; pre-treat. dODN 3 nmol ICV, after treatment 30 min) was 21.9 ± 1.5 s. For the same compound, the “Hot plate Licking latency” value ([1]; pre-treat. dODN 3 nmol ICV, after treatment 45 min) was 22.3 ± 1.7 s, the “Motor coordination (rota-rod)” value (Male Swiss Webster mice [2]; 100 mg/kg BID, SC or IP for 7 and 14 days) was “not different from motor coordination of the control mice” and the “ROTA-ROD No. of falls in 30 seconds” value (Male Swiss Webster mice [2]; 7-day sub-chronic treatment IP 100 mg/kg BID, 15 min after treatment) was 2.2 ± 0.4. For the same compound, the “ROTA-ROD No. of falls in 30 seconds” value (Male Swiss Webster mice [2]; 7-day sub-chronic treatment IP 100 mg/kg BID, 30 min after treatment) was 1.5 ± 0.3, the “ROTA-ROD No. of falls in 30 seconds” value (Male Swiss Webster mice [2]; 7-day sub-chronic treatment IP 100 mg/kg BID, 45 min after treatment) was 1.1 ± 0.3 and the “ROTA-ROD No. of falls in 30 seconds” value (Male Swiss Webster mice [2]; 7-day sub-chronic treatment IP 100 mg/kg BID, before treatment) was 3.6 ± 0.5. The “ROTA-ROD No. of falls in 30 seconds” value (Male Swiss Webster mice [2]; 14-day sub-chronic treatment IP 100 mg/kg BID, 15 min after treatment) was 2.9 ± 0.3, the “ROTA-ROD No. of falls in 30 seconds” value (Male Swiss Webster mice [2]; 14-day sub-chronic treatment IP 100 mg/kg BID, 30 min after treatment) was 1.7 ± 0.4 and the “ROTA-ROD No. of falls in 30 seconds” value (Male Swiss Webster mice [2]; 14-day sub-chronic treatment IP 100 mg/kg BID, 45 min after treatment) was 1.0 ± 0.3. For the same compound, the “ROTA-ROD No. of falls in 30 seconds” value (Male Swiss Webster mice [2]; 14-day sub-chronic treatment IP 100 mg/kg BID, before treatment) was 3.9 ± 0.5, the “EXPLORATORY ACTIVITY No. of movements” value (Male Swiss Webster mice [3]) was 52.3 ± 6.5 and the “LOCOMOTOR ACTIVITY No. of explorations” value (Male Swiss Webster mice [3]) was 24.0 ± 5.1. For the same compound, the “reversal of hyperalgesia induced by morphine withdrawal syndrome” value (Male Swiss Webster mice [4]; one single administration, 5 hours and 30 minutes from replacement of morphine with water (FIG. 5bis)) was “not after one single administration” and the “reversal of hyperalgesia induced by morphine withdrawal syndrome” value (Male Swiss Webster mice [4]; repeated treatment 100 mg/kg BID, IP or SC for 7 days (FIG. 5)) was “capable of reverting the hyperalgesia”.
